One assay has as its target T1, human DGKα (Homo sapiens, UniProt P23743).
T1 construct: purchased Carna Biosciences'; inferred from the same paragraph's 'obtained from Carna Biosciences')
The experiment in a line: DGKα Biochemical Activity Assay (ADP-Glo).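 Also: recombinant enzyme converting diacylglycerol in lipid micelles with ATP, ADP formed detected by luminescence, IC50 from a four-parameter nonlinear fit, geometric mean across experiments.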

For assay [1], the system named is Jurkat NFκB-luciferase cells. Nature of the assay: Jurkat NFκB-Luciferase Assay.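 Also: bioluminescence read-out normalized to DMSO basal activation and to maximum enhancement at 1 µM compound, rising signal indicating stronger T-cell activation through DGKα inhibition.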 Type of assay: cell-based. The conditions noted are these: Homo sapiens; Jurkat NFκB-luciferase cells activated with anti-CD3 antibody (OKT3), 2.5 hrs at 37° C., One-Glo Ex; geometric mean; read-out: DGK NFKb Luciferase EC50.

T1 sequence (P23743 whole entry): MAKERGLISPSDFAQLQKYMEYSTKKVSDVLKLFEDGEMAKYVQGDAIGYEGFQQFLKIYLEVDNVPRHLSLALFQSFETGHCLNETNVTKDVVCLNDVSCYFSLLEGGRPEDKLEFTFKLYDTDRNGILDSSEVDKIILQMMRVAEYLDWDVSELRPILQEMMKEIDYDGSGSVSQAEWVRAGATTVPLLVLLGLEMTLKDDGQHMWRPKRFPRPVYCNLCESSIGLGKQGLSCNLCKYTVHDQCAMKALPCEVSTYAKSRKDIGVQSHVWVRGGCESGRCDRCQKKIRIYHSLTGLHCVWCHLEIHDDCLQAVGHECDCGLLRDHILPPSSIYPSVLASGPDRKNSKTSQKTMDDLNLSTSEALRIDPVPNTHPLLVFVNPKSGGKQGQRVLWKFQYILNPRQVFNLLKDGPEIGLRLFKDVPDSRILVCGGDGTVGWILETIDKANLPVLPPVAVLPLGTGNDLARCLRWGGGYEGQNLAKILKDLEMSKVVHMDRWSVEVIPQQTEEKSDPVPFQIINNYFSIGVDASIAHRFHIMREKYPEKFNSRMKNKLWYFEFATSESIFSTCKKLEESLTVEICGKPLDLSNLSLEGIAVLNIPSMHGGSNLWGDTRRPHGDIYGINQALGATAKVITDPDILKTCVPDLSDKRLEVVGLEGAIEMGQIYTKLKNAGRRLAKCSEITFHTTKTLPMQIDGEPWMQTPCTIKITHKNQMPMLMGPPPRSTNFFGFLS

As to `CN(c1cccc(-c2ccc(C3CC3)cc2)c1)c1nc(=O)[nH]c2cc(Cl)ccc12` [Example 1, 7-chloro-4-[3-(4-cyclopropylphenyl)-N-methyl-anilino]-1H-quinazolin-2-one], the IC50 at human DGKα came to 166 nM. The EC50 in assay [1] was determined as 1.36 nM. The corresponding values for `CN(c1cccc(-c2ccc(C3CC3)cc2)c1)c1nc(=O)n(C)c2cc(Cl)ccc12` [Example 2, 7-chloro-4-[3-(4-cyclopropylphenyl)-N-methyl-anilino]-1-methyl-quinazolin-2-one] are 15.1 nM and 0.479 nM. The corresponding values for `CN(c1cccc(C#CC(C)(C)O)c1)c1nc(=O)[nH]c2cc(Cl)ccc12` [Example 3, 7-chloro-4-[3-(3-hydroxy-3-methyl-but-1-ynyl)-N-methyl-anilino]-1H-quinazolin-2-one] are 96.3 nM and 10.7 nM. In the same order, the values of `CN(c1cccc(C#CC(C)(C)O)c1)c1nc(=O)n(C)c2cc(Cl)ccc12` [Example 4, 7-chloro-4-[3-(3-hydroxy-3-methyl-but-1-ynyl)-N-methyl-anilino]-1-methyl-quinazolin-2-one] are 17 nM and 4.56 nM. Take `CN(c1cccc(C#CC2(C(F)(F)F)CC2)c1)c1nc(=O)[nH]c2cc(Cl)ccc12` [Example 5, 7-chloro-4-[N-methyl-3-[2-[1-(trifluoromethyl)cyclopropyl]ethynyl]anilino]-1H-quinazolin-2-one]: the IC50 against human DGKα came to 53.1 nM. The EC50 in assay [1] was determined as 1.01 nM. For `CN(c1cccc(-c2ccc(N3CCCC3)nc2)c1)c1nc(=O)[nH]c2cc(Cl)ccc12` [Example 6, 7-chloro-4-[N-methyl-3-(6-pyrrolidin-1-yl-3-pyridyl)anilino]-1H-quinazolin-2-one], inhibition against human DGKα was half-maximal at 84.5 nM (IC50). For the same molecule, in assay [1], the EC50 was found to be 2.24 nM.

At human DGKα, `CN(c1cccc(-c2ccc(N3CCCC3)nc2)c1)c1nc(=O)n(C)c2cc(Cl)ccc12` [Example 7, 7-chloro-1-methyl-4-[N-methyl-3-(6-pyrrolidin-1-yl-3-pyridyl)anilino]quinazolin-2-one] yielded an IC50 of 17.9 nM. In assay [1], the EC50 was determined as 0.675 nM. The corresponding values for `CN(c1cccc(C#CC2(C(F)(F)F)CC2)c1)c1nc(=O)n(C)c2cc(Cl)ccc12` [Example 8, 7-chloro-1-methyl-4-[N-methyl-3-[2-[1-(trifluoromethyl)cyclopropyl]ethynyl]anilino]quinazolin-2-one] are 12.4 nM and 0.489 nM. The corresponding values for `CN(c1cccc(-c2ccc(N3CCCS3(=O)=O)cc2)c1)c1nc(=O)[nH]c2cc(Cl)ccc12` [Example 9, 7-chloro-4-[3-[4-(1,1-dioxo-1,2-thiazolidin-2-yl)phenyl]-N-methyl-anilino]-1H-quinazolin-2-one] are 33.3 nM and 5.03 nM. The molecule `CN(c1cccc(-c2ccc(N3CCCS3(=O)=O)cc2)c1)c1nc(=O)n(C)c2cc(Cl)ccc12` [Example 10, 7-chloro-4-[3-[4-(1,1-dioxo-1,2-thiazolidin-2-yl)phenyl]-N-methyl-anilino]-1-methyl-quinazolin-2-one] gave an IC50 against human DGKα of 14 nM. Also, in assay [1], the EC50 was 1.51 nM.

On to `O=c1nc(N(CC(F)F)c2ccnc(C#CC3(C(F)(F)F)CC3)c2)c2c(F)c(F)ccc2[nH]1` [Example 78], for which, in assay [1], the EC50 came to 2.55 nM. The same measure, in the same setting: the result for `O=c1nc(N2CCOCc3c(C#CC4(C(F)(F)F)CC4)cccc32)c2c(F)cccc2[nH]1` [Example 90] reads 0.442 nM. On the same count and under the same terms, as for `[2H]C([2H])([2H])n1c(=O)nc(N2CCOCc3c(C#CC4(C(F)(F)F)CC4)cccc32)c2c(F)c(F)ccc21` [Example 96], the figure is 0.559 nM; as for `O=c1nc(N2CCCCc3c(C#CC4(C(F)(F)F)CC4)cncc32)c2c(F)cccc2[nH]1` [Example 153], 1.62 nM. Same read-out and setting: as for `CC1(C#Cc2cccc3c2COCCN3c2nc(=O)[nH]c3cccc(F)c23)CC1` [Example 154], the figure is 0.783 nM.

Values taken from patent publication US11932634B2 (Gilead Sciences, Inc., priority 2021, dated 2024).
